In brackets after ≈: the same amount, converted by molar mass. Where two headings read alike, the source gives them in different places.
Tests used:
S. aureus Newbould = test: MIC, microdilution in CAMHB 24 h; format: cell-based, Staphylococcus aureus; details: Newbould
S. aureus ATCC 29213 = test: MIC, microdilution in BHI 48 h (Examples 1, 3); format: cell-based, Staphylococcus aureus
[1] = system: S. aureus SCV NewbouldΔhemB; test: MIC, microdilution in BHI 48 h; format: cell-based, Staphylococcus aureus; details: NewbouldΔhemB, SCV
S. hominis sho23 = test: MIC, microdilution, with or without tomatidine; details: for MIC: Staphylococcus hominis
[2] = system: S. aureus Newbould (normal strain); test: MIC, microdilution in BHI 48 h; format: cell-based, Staphylococcus aureus; details: Newbould, normal strain
S. aureus SCV CF07-S = test: MIC, microdilution in BHI 48 h (Examples 1, 3); format: cell-based, Staphylococcus aureus
[3] = system: S. epidermidis ATCC 12228; test: MIC, microdilution, with or without tomatidine; details: for MIC: Staphylococcus epidermidis
[4] = system: S. epidermidis ATCC 35984; test: MIC, microdilution, with or without tomatidine; details: for MIC: Staphylococcus epidermidis
S. aureus MRSA COL = test: MIC, microdilution in CAMHB 24 h; format: cell-based, Staphylococcus aureus; details: MRSA COL
[5] = system: S. aureus CF07-L (normal strain); test: MIC, microdilution in BHI 48 h (Examples 1, 3); format: cell-based, Staphylococcus aureus
S. hominis ssp008c = test: MIC, microdilution, with or without tomatidine; details: for MIC: Staphylococcus hominis, SSP008C
[6] = system: S. aureus CF1A-L (normal strain); test: MIC, microdilution in BHI 48 h; format: cell-based, Staphylococcus aureus; details: CF1A-L, normal strain
S. aureus CF2A-L = test: MIC, microdilution in CAMHB 24 h; format: cell-based; details: CF2A-L
[7] = system: all tested S. aureus strains; test: Average potentiation of aminoglycoside MIC by tomatidine (FIGS. 6, 7); format: cell-based, Staphylococcus aureus; details: tomatidine at 8 μg/ml
S. aureus SCV CF1D-S = test: MIC, microdilution in BHI 48 h; format: cell-based, Staphylococcus aureus; details: CF1D-S, SCV
S. aureus MA078038 = test: MIC, microdilution in CAMHB 24 h; format: cell-based, Staphylococcus aureus
S. aureus ATCC 43300 = test: MIC, microdilution in CAMHB 24 h; format: cell-based, Staphylococcus aureus; details: ATCC 43300
S. haemolyticus sh032 = test: MIC, microdilution, with or without tomatidine; details: for MIC: Staphylococcus haemolyticus
S. aureus N315 = test: microbe, parasite or virus in culture; format: cell-based, Staphylococcus aureus
normal strain CF07-L = test: Broth growth with gentamicin or tomatidine, visually evaluated (FIG. 5A); details: gentamicin at 4 μg/ml or tomatidine at 0.12 μg/ml alone, 48 h
S. haemolyticus sh022 = test: MIC, microdilution, with or without tomatidine; details: for MIC: Staphylococcus haemolyticus
[8] = S. hominis sho23, 8 μg/ml of tomatidine
[9] = S. epidermidis ATCC 12228, 8 μg/ml of tomatidine
[10] = S. epidermidis ATCC 35984, 8 μg/ml of tomatidine
[11] = S. hominis ssp008c, 8 μg/ml of tomatidine
[12] = MA078038, 8 μg/ml of tomatidine
[13] = S. haemolyticus sh032, 8 μg/ml of tomatidine
[14] = S. haemolyticus sh022, 8 μg/ml of tomatidine
[15] = Staphylococcus aureus, 8 μg/ml of tomatidine, read-out: MIC +TO
[16] = Staphylococcus aureus, absence of tomatidine, read-out: MIC −TO

gentamicin
MIC +TO (S. aureus Newbould; 8 μg/ml of tomatidine): 0.06 µg/mL
MIC (S. aureus Newbould; Cow (mastitis)): 0.5 to 1 µg/mL
MIC −TO (S. aureus Newbould; absence of tomatidine): 0.5 to 1 µg/mL
MIC (S. aureus ATCC 29213; ATCC 29213 + HQNO at 20 μg/ml): 4 µg/mL
MIC (S. aureus ATCC 29213; ATCC 29213, without HQNO): 1 µg/mL
MIC in presence of CCCP (S. aureus ATCC 29213; ATCC 29213, 1 μg/ml CCCP): 4 to 8 µg/mL
MIC (S. aureus ATCC 29213; ATCC 29213 in BHI): 1 µg/mL
MIC (S. aureus ATCC 29213; ATCC 29213 in MHBCA): 0.5-1^ μg/ml
MIC [1]: 4 to 8 µg/mL
Fold (−TO/+TO) (S. hominis sho23; [8]): 2 fold
MIC +TO (S. hominis sho23; [8]): 0.06 µg/mL
MIC −TO (S. hominis sho23; S. hominis sho23, absence of tomatidine): 0.12 µg/mL
MIC [2]: 0.5-1^ μg/ml
MIC (S. aureus SCV CF07-S; CF07-S + HQNO at 20 μg/ml): 4 to 8 µg/mL
MIC (S. aureus SCV CF07-S; CF07-S, SCV): 8 µg/mL
MIC (S. aureus SCV CF07-S; CF07-S, without HQNO): 8 µg/mL
Fold (−TO/+TO) [3, 9]: 2 fold
MIC +TO [3, 9]: 0.06 µg/mL
MIC −TO ([3]; S. epidermidis ATCC 12228, absence of tomatidine): 0.12 µg/mL
Fold (−TO/+TO) [4, 10]: 4 fold
MIC +TO [4, 10]: 8 µg/mL
MIC −TO ([4]; S. epidermidis ATCC 35984, absence of tomatidine): 32 µg/mL
Fold (−TO/+TO) (S. aureus MRSA COL; 8 μg/ml of tomatidine): 8-16 fold
MIC +TO (S. aureus MRSA COL; 8 μg/ml of tomatidine): 0.06 µg/mL
MIC (S. aureus MRSA COL; Human (SSTI)): 0.5 to 1 µg/mL
MIC −TO (S. aureus MRSA COL; absence of tomatidine): 0.5 to 1 µg/mL
MIC ([5]; CF07-L + HQNO at 20 μg/ml): 4 µg/mL
MIC ([5]; CF07-L, normal strain): 1 to 2 µg/mL
MIC ([5]; CF07-L, without HQNO): 1 to 2 µg/mL
Fold (−TO/+TO) (S. hominis ssp008c; [11]): 4 fold
MIC +TO (S. hominis ssp008c; [11]): 2 µg/mL
MIC −TO (S. hominis ssp008c; S. hominis ssp008c, absence of tomatidine): 8 µg/mL
MIC [6]: 1 to 2 µg/mL
Fold (−TO/+TO) (S. aureus CF2A-L; 8 μg/ml of tomatidine): 4-8 fold
MIC +TO (S. aureus CF2A-L; 8 μg/ml of tomatidine): 0.12 to 0.25 µg/mL
MIC (S. aureus CF2A-L; Human (CF lungs)): 1 µg/mL
MIC −TO (S. aureus CF2A-L; absence of tomatidine): 1 µg/mL
average increase of antibacterial activity [7]: 8±3 fold
MIC (S. aureus SCV CF1D-S): 8 µg/mL
MIC +TO (S. aureus MA078038; MA078038, aph(3′)-IIIa, 8 μg/ml of tomatidine): 0.06 µg/mL
MIC −TO (S. aureus MA078038; MA078038, aph(3′)-IIIa, absence of tomatidine): 0.25 to 0.5 µg/mL
Fold (−TO/+TO) (S. aureus MA078038; [12]): 4-8 fold
MIC (S. aureus MA078038; MA078038, Human (CA), MRSA): 0.25 to 0.5 µg/mL
Fold (−TO/+TO) (S. aureus ATCC 43300; 8 μg/ml of tomatidine): 4 fold
MIC +TO (S. aureus ATCC 43300; 8 μg/ml of tomatidine): 16 to 32 µg/mL
MIC (S. aureus ATCC 43300; Human (HA), MRSA): 64-128 (R) μg/ml
MIC −TO (S. aureus ATCC 43300; absence of tomatidine): 64 to 128 µg/mL
Fold (−TO/+TO) (S. haemolyticus sh032; [13]): 8 fold
MIC +TO (S. haemolyticus sh032; [13]): 8 µg/mL
MIC −TO (S. haemolyticus sh032; S. haemolyticus sh032, absence of tomatidine): 64 µg/mL
MIC +TO (S. aureus N315; N315, ant(4′)-Ia, 8 μg/ml of tomatidine): 0.12 µg/mL
MIC −TO (S. aureus N315; N315, ant(4′)-Ia, absence of tomatidine): 1 µg/mL
Fold (−TO/+TO) (S. aureus N315; N315, 8 μg/ml of tomatidine): 8 fold
MIC (S. aureus N315; N315, Human (HA), MRSA): 1 µg/mL
growth, visually evaluated (normal strain CF07-L): inhibits the growth
Fold (−TO/+TO) (S. haemolyticus sh022; [14]): 4 fold
MIC +TO (S. haemolyticus sh022; [14]): 4 µg/mL
MIC −TO (S. haemolyticus sh022; S. haemolyticus sh022, absence of tomatidine): 16 µg/mL

NC[C@H]1O[C@H](O[C@H]2[C@H](O)[C@@H](O[C@H]3O[C@H](CO)[C@@H](O)[C@H](N)[C@H]3O)[C@H](N)C[C@@H]2N)[C@H](N)C[C@@H]1O [Tobramycin, tobramycin]
Fold (−TO/+TO) (S. aureus Newbould; 8 μg/ml of tomatidine): 8 fold
MIC (S. aureus Newbould; [15]): 0.06 to 0.12 µg/mL (≈ 0.128 to 0.257 µM)
MIC (S. aureus Newbould; Staphylococcus aureus, Cow (mastitis), read-out: MIC): 0.5 to 1 µg/mL (≈ 1.07 to 2.14 µM)
MIC (S. aureus Newbould; [16]): 0.5 to 1 µg/mL (≈ 1.07 to 2.14 µM)
Fold (−TO/+TO) (S. hominis sho23; [8]): 4 fold
MIC (S. hominis sho23; SHO23, read-out: MIC +TO): 1 µg/mL (≈ 2.14 µM)
MIC (S. hominis sho23; SHO23, read-out: MIC −TO): 4 µg/mL (≈ 8.56 µM)
Fold (−TO/+TO) [3, 9]: 2 fold
MIC ([3]; ATCC12228, read-out: MIC +TO): 0.06 µg/mL (≈ 0.128 µM)
MIC ([3]; ATCC12228, read-out: MIC −TO): 0.12 µg/mL (≈ 0.257 µM)
Fold (−TO/+TO) [4, 10]: 8 fold
MIC ([4]; ATCC35984, read-out: MIC +TO): 2 µg/mL (≈ 4.28 µM)
MIC ([4]; ATCC35984, read-out: MIC −TO): 16 µg/mL (≈ 34.2 µM)
Fold (−TO/+TO) (S. aureus MRSA COL; 8 μg/ml of tomatidine): 8-16 fold
MIC (S. aureus MRSA COL; [15]): 0.06 µg/mL (≈ 0.128 µM)
MIC (S. aureus MRSA COL; Staphylococcus aureus, Human (SSTI), read-out: MIC): 0.5 to 1 µg/mL (≈ 1.07 to 2.14 µM)
MIC (S. aureus MRSA COL; [16]): 0.5 to 1 µg/mL (≈ 1.07 to 2.14 µM)
Fold (−TO/+TO) (S. hominis ssp008c; [11]): 4 fold
MIC (S. hominis ssp008c; read-out: MIC +TO): 8 µg/mL (≈ 17.1 µM)
MIC (S. hominis ssp008c; read-out: MIC −TO): 32 µg/mL (≈ 68.4 µM)
Fold (−TO/+TO) (S. aureus CF2A-L; 8 μg/ml of tomatidine): 8-16 fold
MIC (S. aureus CF2A-L; Staphylococcus aureus, CF2AL, 8 μg/ml of tomatidine, read-out: MIC +TO): 0.06 to 0.12 µg/mL (≈ 0.128 to 0.257 µM)
MIC (S. aureus CF2A-L; Staphylococcus aureus, CF2AL, Human (CF lungs), read-out: MIC): 1 µg/mL (≈ 2.14 µM)
MIC (S. aureus CF2A-L; Staphylococcus aureus, CF2AL, absence of tomatidine, read-out: MIC −TO): 1 µg/mL (≈ 2.14 µM)
average increase of antibacterial activity [7]: 8±3 fold
Fold (−TO/+TO) (S. aureus MA078038; [12]): 4-8 fold
MIC (S. aureus MA078038; Staphylococcus aureus, MA078038, aph(3′)-IIIa, 8 μg/ml of tomatidine, read-out: MIC +TO): 0.06 to 0.12 µg/mL (≈ 0.128 to 0.257 µM)
MIC (S. aureus MA078038; Staphylococcus aureus, MA078038, aph(3′)-IIIa, absence of tomatidine, read-out: MIC −TO): 0.5 µg/mL (≈ 1.07 µM)
MIC (S. aureus MA078038; Staphylococcus aureus, MA078038, Human (CA), MRSA, read-out: MIC): 0.5 µg/mL (≈ 1.07 µM)
Fold (−TO/+TO) (S. aureus ATCC 43300; 8 μg/ml of tomatidine): 4-8 fold
MIC (S. aureus ATCC 43300; Staphylococcus aureus, ATCC 43300 / MRSA, Human (HA), MRSA, read-out: MIC): 512 to 1020 µg/mL (≈ 1100 to 2190 µM)
MIC (S. aureus ATCC 43300; Staphylococcus aureus, ATCC43300, 8 μg/ml of tomatidine, read-out: MIC +TO): 128 µg/mL (≈ 274 µM)
MIC (S. aureus ATCC 43300; Staphylococcus aureus, ATCC43300, absence of tomatidine, read-out: MIC −TO): 512 to 1020 µg/mL (≈ 1100 to 2190 µM)
Fold (−TO/+TO) (S. haemolyticus sh032; [13]): 16 fold
MIC (S. haemolyticus sh032; SH032, read-out: MIC +TO): 2 µg/mL (≈ 4.28 µM)
MIC (S. haemolyticus sh032; SH032, read-out: MIC −TO): 32 µg/mL (≈ 68.4 µM)
Fold (−TO/+TO) (S. aureus N315; N315, 8 μg/ml of tomatidine): 2-4 fold
MIC (S. aureus N315; Staphylococcus aureus, MRSA): 512 µg/mL (≈ 1100 µM)
MIC (S. aureus N315; Staphylococcus aureus, N315, read-out: MIC +TO): 128 to 256 µg/mL (≈ 274 to 548 µM)
MIC (S. aureus N315; Staphylococcus aureus, N315, read-out: MIC −TO): 512 µg/mL (≈ 1100 µM)
Fold (−TO/+TO) (S. haemolyticus sh022; [14]): 8 fold
MIC (S. haemolyticus sh022; SH022, read-out: MIC +TO): 4 µg/mL (≈ 8.56 µM)
MIC (S. haemolyticus sh022; SH022, read-out: MIC −TO): 32 µg/mL (≈ 68.4 µM)

Reference: patent US9457033B2, “Steroid alkaloids and uses thereof as antimicrobial agents against electron transport-deficient microbes and as potentiators for antimicrobial agents against pathogenic bacteria” (priority 2011, dated 2016)
